{"source": "paper PMC12473159", "about": "“A Comprehensive Functional Analysis of OsPEAMT1 and OsPEAMT2 Genes in Rice (Oryza sativa L. ssp. japonica)” (Plants, 2025)", "key": {"OsPEAMT1": {"biological_target": "T1, OsPEAMT1 (Oryza sativa, UniProt Q6QA26)", "T1 construct": "gene PEAMT", "T1 sequence (Q6QA26 20-499)": "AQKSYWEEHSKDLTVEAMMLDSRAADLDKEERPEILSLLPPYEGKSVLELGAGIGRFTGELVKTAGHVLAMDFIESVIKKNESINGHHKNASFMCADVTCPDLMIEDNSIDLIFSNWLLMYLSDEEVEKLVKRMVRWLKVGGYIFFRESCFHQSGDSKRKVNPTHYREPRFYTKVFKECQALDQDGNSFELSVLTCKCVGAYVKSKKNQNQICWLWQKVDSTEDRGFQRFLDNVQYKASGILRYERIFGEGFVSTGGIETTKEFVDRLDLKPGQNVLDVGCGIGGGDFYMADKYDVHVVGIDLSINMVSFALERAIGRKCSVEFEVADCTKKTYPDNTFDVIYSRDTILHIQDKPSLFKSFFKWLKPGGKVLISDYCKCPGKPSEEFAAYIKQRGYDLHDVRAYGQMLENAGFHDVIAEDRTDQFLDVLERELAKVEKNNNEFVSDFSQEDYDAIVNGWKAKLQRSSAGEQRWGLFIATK", "experiment": "LC-MS/MS of phosphocholine formed", "assay_type": "biochemical", "settings": "200 uM P-EA, 200 uM S-adenosyl-L-methionine, HEPES-KOH pH 9.9, 2 mM EDTA, 30 C, 30 min"}, "OsPEAMT2": {"biological_target": "T2, OsPEAMT2 (Oryza sativa, UniProt A0A0P0WPX7)", "T2 construct": "gene Os05g0548900; forward primer encodes MDAVAAN", "T2 sequence (A0A0P0WPX7 1-495)": "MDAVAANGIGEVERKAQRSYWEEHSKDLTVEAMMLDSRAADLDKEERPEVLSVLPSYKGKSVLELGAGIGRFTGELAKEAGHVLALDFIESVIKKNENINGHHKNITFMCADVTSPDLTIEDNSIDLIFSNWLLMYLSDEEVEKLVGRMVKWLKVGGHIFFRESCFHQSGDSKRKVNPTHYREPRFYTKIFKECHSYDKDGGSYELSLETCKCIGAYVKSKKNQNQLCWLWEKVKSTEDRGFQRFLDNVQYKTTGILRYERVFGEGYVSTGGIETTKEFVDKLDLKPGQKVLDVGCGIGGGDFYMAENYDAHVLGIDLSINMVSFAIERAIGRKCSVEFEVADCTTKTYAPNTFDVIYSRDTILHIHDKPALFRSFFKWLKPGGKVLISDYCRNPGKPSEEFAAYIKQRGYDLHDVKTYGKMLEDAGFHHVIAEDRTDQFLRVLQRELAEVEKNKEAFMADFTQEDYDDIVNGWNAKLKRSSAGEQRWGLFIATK", "experiment": "LC-MS/MS of phosphocholine formed", "assay_type": "biochemical", "settings": "200 uM P-EA, 200 uM S-adenosyl-L-methionine, HEPES-KOH pH 9.9, 2 mM EDTA, 30 C, 30 min"}}, "data": [{"molecule": "NCCOP(=O)(O)O", "note": "[P-EA]", "values": [{"measurement": "LC-MS/MS of phosphocholine formed", "setting": "OsPEAMT1", "result": "both recombinant OsPEAMT1 and OsPEAMT2 have the activity to catalyze substrate P-EA producing P-Cho"}, {"measurement": "LC-MS/MS of phosphocholine formed", "setting": "OsPEAMT2", "result": "both recombinant OsPEAMT1 and OsPEAMT2 have the activity to catalyze substrate P-EA producing P-Cho"}]}]}
